Measured values taken from US20080312306A1, “POLYMORPHS, SOLVATES, AND HYDRATE OF 5-(4'-FLUORO-2'-OXO-1',2'-DIHYDROSPIRO[CYCLOPROPANE-1,3'-INDOL]-5'-YL)-1-METHYL-1H-PYRROLE-2-CARBONITRILE” (Wyeth, priority 2007, published 2008).

Columns and labels:
Type in all cases: physicochemical
[1] = Solid-form stability (thermodynamic stability, slurrying in solvent, water, micronization, vacuum)
From the text: (§1) The inventors found several advantages of these new forms of 5-(4′-fluoro-2′-oxo-1′,2′-dihydrospiro[cyclopropane-1,3′-indol]-5′-yl)-1-methyl-1H-pyrrole-2-carbonitrile. […] In yet a further embodiment, samples of the hydrate of 5-(4′-fluoro-2′-oxo-1′,2′-dihydrospiro[cyclopropane-1,3′-indol]-5′-yl)-1-methyl-1H-pyrrole-2-carbonitrile were hygroscopic.
The hydrate of 5-(4′-fluoro-2′-oxo-1′,2′-dihydrospiro[cyclopropane-1,3′-indol]-5′-yl)-1-methyl-1H-pyrrole-2-carbonitrile is also stable under a variety of conditions. In one example, the hydrate is stable in water. In another example, the hydrate is stable under conditions of micronization. In a further example, the hydrate is stable under a vacuum for a period of at least about 48 hours.

[2] = Hygroscopicity / water content by dynamic vapor sorption (DVS)
From the text: as §1
The hydrate has a different structure of the crystal lattice of 5-(4′-fluoro-2′-oxo-1′,2′-dihydrospiro[cyclopropane-1,3′-indol]-5′-yl)-1-methyl-1H-pyrrole-2-carbonitrile from the Form I described in the art as determined by XRD and DSC. Specifically, the hydrate contains water in the crystal lattice. Specifically, as evidenced by dynamic vapor sorption (DVS), the hydrate contains about 2.5% to about 5% water. In one embodiment, the hydrate contains about 2.5% water at 0% relative humidity (RH).

[3] = Relative solubility of the crystallographic forms
From the text: as §1

Structure (SMILES) | stability ([1]; in water) | period of stability under a vacuum ([1]; under a vacuum) | stability ([1]; under conditions of micronization) | hygroscopicity [2] | water content (DVS) ([2]; at 0% relative humidity (RH)) | water content (DVS) ([2]; at 100% RH) | thermodynamic stability ([1]; compared with polymorph Form I) | conversion to other polymorphs ([1]; if slurried in a solvent) | solubility ([3]; compared with other crystallographic forms) | solubility ([3]; compared with polymorph Form II)
Cn1c(C#N)ccc1-c1ccc2c(c1F)C1(CC1)C(=O)N2 [hydrate, 5-(4′-fluoro-2′-oxo-1′,2′-dihydrospiro[cyclopropane-1,3′-indol]-5′-yl)-1-methyl-1H-pyrrole-2-carbonitrile] | stable | at least 48 hours | stable | hygroscopic | about 2.5% | about 4.75% |  |  |  | 
Cn1c(C#N)ccc1-c1ccc2c(c1F)C1(CC1)C(=O)N2 [polymorph Form II, 5-(4′-fluoro-2′-oxo-1′,2′-dihydrospiro[cyclopropane-1,3′-indol]-5′-yl)-1-methyl-1H-pyrrole-2-carbonitrile] |  |  |  | not hygroscopic |  |  | more thermodynamically stable | does not convert to other polymorphs |  | 
Cn1c(C#N)ccc1-c1ccc2c(c1F)C1(CC1)C(=O)N2 [polymorph Form III, 5-(4′-fluoro-2′-oxo-1′,2′-dihydrospiro[cyclopropane-1,3′-indol]-5′-yl)-1-methyl-1H-pyrrole-2-carbonitrile] |  |  |  |  |  |  |  |  | more soluble than other crystallographic forms | more soluble than polymorph Form II
